Results on 2 compounds are retold here after PMC2879651 (Bioanalysis, 2009).

Like-named read-outs stand apart in the source and are kept apart here.

The format of data set [1] is in vivo, male FVB/N mice. The conditions noted are these: for Cmax / MRT: male, FVB/N, mouse, ip, 2 mg/kg; for AUC0→t (AUC0→60 min): 0-60 min.
The conditions of data set [2]: fatal intoxication after ingestion of Ayahuasca preparation; cited from earlier work.
For data set [3] the following is noted: rats, 1 hour after bufotenine 30 mg/kg s.c.; cited from earlier work.

With `COc1ccc2[nH]cc(CCN(C)C)c2c1` [5-MeO-DMT, 5-Methoxy-N,N-dimethyltryptamine, reference compound], in data set [1] (serum), the Cmax (usually the peak of the concentration-time curve) turned out to be 298 ± 29 ng/mL and the mean residence time (MRT) – broadly, the average time that molecules of a dose stay in the body – is 17.6 min. Also, the “serum concentration at 60 min relative to Cmax” value in data set [1] (mice, 60 min after 5-MeO-DMT 2 mg/kg i.p.) stood at 4.4%. For the same compound, the “AUC0→t (AUC0→90 min)” value in data set [1] (mice, serum, after 5-MeO-DMT 2 mg/kg i.p., 0-90 min) is reported as 6,000 ± 1,240 µg·min/L. Also, the “concentration in heart blood of decedent” value in data set [2] was 1880 ng/mL.
In data set [1] (serum), `CN(C)CCc1c[nH]c2ccc(O)cc12` [Bufotenine, bufotenine] had a peak concentration (Cmax) of 10.6 ± 2.3 ng/mL and an MRT of 24.3 min. Besides, the “serum concentration at 90 min” value in data set [1] (mice, 90 min after 5-MeO-DMT 2 mg/kg i.p., metabolite) is “below the LLOQ”. Further, the “systemic exposure (AUC) to bufotenine relative to that to 5-MeO-DMT” value in data set [1] (mice, after 5-MeO-DMT 2 mg/kg i.p.) is recorded as “about 1/14”. Moreover, the Tmax (usually the time from dosing to the highest level) in data set [1] (mice, serum, after 5-MeO-DMT 2 mg/kg i.p., bufotenine as metabolite) came out at 13.3 ± 5.8 min. Besides, the “AUC0→t (AUC0→60 min)” value in data set [1] (mice, serum, after 5-MeO-DMT 2 mg/kg i.p., metabolite) was determined as 388 ± 82 µg·min/L. The “AUC0→t (AUC0→60 min)” value in data set [1] (mice, serum, after 5-MeO-DMT 2 mg/kg i.p., metabolite, listed as bufotenine) is recorded as 388 µg·min/L. In addition, the “brain over blood ratio of drug concentration” value in data set [3] is listed as 1/15.
